From patent US8609591B2, “Herbicidal composition” (Ishihara Sangyo Kaisha, Ltd., priority 2010, dated 2013)
Read-outs that look alike come from different tables or passages of the source.

Tests used:
[1] = system: velvetleaf (Abutilon theophrasti MEDIC.); test: Foliar treatment pot test, growth inhibition rate visually observed; assay type: in vivo; conditions: for inhibition at 18.75 g/ha / inhibition at 37.5 g/ha: 8 DAT
Description: (§1) Upland field soil was put into a 1/1,000,000 hectare pot, and seeds of various plants (barnyardgrass (Echinochloa crus-galli L.) and velvetleaf (Abutilon theophrasti MEDIC.) were sown. When the respective plants reached predetermined leaf stage, herbicidal compositions in predetermined amounts were diluted with water in an amount corresponding to 300 L/ha and applied for foliar treatment by a small sprayer.
(§2) On the 8 to 14 days after treatment (DAT), the state of growth of the respective plants was visually observed to determine the growth inhibition rate (measured value) in accordance with the following evaluation standard. Further, in accordance with the Colby's formula, the growth inhibition rate (calculated value) was calculated. In Tables, with respect to the benzoylpyrazole compound represented by the formula (I), Compound Nos. in Table 1 are described, and with respect to other compounds, common names are described. […]

[2] = system: barnyardgrass (Echinochloa crus-galli L.); test: as above; assay type: in vivo; conditions: for inhibition at 18.75 g/ha / inhibition at 37.5 g/ha: 8 DAT
Description: as §1, §2

[3] = 192 h, 1.8 to 2.4 leaf stage, foliar treatment, Table 2-2, read-out: Growth inhibition rate (%) of velvetleaf, Measured value
[4] = 192 h, 1.8 to 2.4 leaf stage, foliar treatment, Table 2-6, read-out: Growth inhibition rate (%) of velvetleaf, Measured value
[5] = 192 h, 2.6 to 3.2 leaf stage, foliar treatment, Table 2-4, read-out: Growth inhibition rate (%) of velvetleaf, Measured value
[6] = 192 h, 2.6 to 3.2 leaf stage, foliar treatment, Table 2-11, read-out: Growth inhibition rate (%) of velvetleaf, Measured value
[7] = 192 h, 2.6 to 3.2 leaf stage, foliar treatment, Table 2-13, read-out: Growth inhibition rate (%) of velvetleaf, Measured value
[8] = 192 h, 2.8 to 3.4 leaf stage, foliar treatment, Table 2-5, read-out: Growth inhibition rate (%) of barnyardgrass, Measured value
[9] = 192 h, 2.8 to 3.4 leaf stage, foliar treatment, read-out: Growth inhibition rate (%) of barnyardgrass, Measured value
[10] = 192 h, 3.6 to 4.5 leaf stage, foliar treatment, Table 2-3, read-out: Growth inhibition rate (%) of barnyardgrass, Measured value
[11] = 192 h, 3.6 to 4.5 leaf stage, foliar treatment, Table 2-10, read-out: Growth inhibition rate (%) of barnyardgrass, Measured value
[12] = 192 h, 3.6 to 4.5 leaf stage, foliar treatment, Table 2-12, read-out: Growth inhibition rate (%) of barnyardgrass, Measured value
[13] = 192 h, read-out: Growth inhibition rate (%) of velvetleaf, Measured value
[14] = 192 h, read-out: Growth inhibition rate (%) of barnyardgrass, Measured value

CC(C)c1nn(C(=O)NC(C)(C)C)c(=O)n1N [Amicarbazone]
inhibition at 18.75 g/ha [1, 3]: 40% | inhibition at 18.75 g/ha [1, 4]: 40% | inhibition at 18.75 g/ha [1, 5]: 50% | inhibition at 18.75 g/ha [1, 6]: 50% | inhibition at 18.75 g/ha [1, 7]: 50% | inhibition at 37.5 g/ha [1, 3]: 45% | inhibition at 37.5 g/ha [1, 4]: 45% | inhibition at 37.5 g/ha [1, 5]: 60% | inhibition at 37.5 g/ha [1, 6]: 60% | inhibition at 37.5 g/ha [1, 7]: 60% | inhibition at 30 g/ha ([1]; 336 h, 30 g/ha, 4 to 4.5 leaf stage, 14 DAT, foliar treatment, read-out: Growth inhibition rate (%) of velvetleaf, Measured value): 35% | inhibition at 50 g/ha ([1]; 336 h, 50 g/ha, 4 to 4.5 leaf stage, 14 DAT, foliar treatment, read-out: Growth inhibition rate (%) of velvetleaf, Measured value): 55% | inhibition at 75 g/ha ([1]; 336 h, 75 g/ha, 4 to 4.5 leaf stage, 14 DAT, foliar treatment, read-out: Growth inhibition rate (%) of velvetleaf, Measured value): 55% | inhibition at 18.75 g/ha [2, 8]: 30% | inhibition at 18.75 g/ha [2, 9]: 30% | inhibition at 18.75 g/ha [2, 10]: 20% | inhibition at 18.75 g/ha [2, 11]: 20% | inhibition at 18.75 g/ha [2, 12]: 20% | inhibition at 37.5 g/ha [2, 8]: 50% | inhibition at 37.5 g/ha [2, 9]: 50% | inhibition at 37.5 g/ha [2, 10]: 25% | inhibition at 37.5 g/ha [2, 11]: 25% | inhibition at 37.5 g/ha [2, 12]: 25% | inhibition at 75 g/ha ([2]; 264 h, 75 g/ha, 3.2 to 4.1 leaf stage, 11 DAT, foliar treatment, read-out: Growth inhibition rate (%) of barnyardgrass, Measured value): 40% | inhibition at 150 g/ha ([2]; 264 h, 150 g/ha, 3.2 to 4.1 leaf stage, 11 DAT, foliar treatment, read-out: Growth inhibition rate (%) of barnyardgrass, Measured value): 73% | inhibition at 30 g/ha ([2]; 336 h, 30 g/ha, 4.2 to 5.3 leaf stage, 14 DAT, foliar treatment, read-out: Growth inhibition rate (%) of barnyardgrass, Measured value): 0% | inhibition at 50 g/ha ([2]; 336 h, 50 g/ha, 4.2 to 5.3 leaf stage, 14 DAT, foliar treatment, read-out: Growth inhibition rate (%) of barnyardgrass, Measured value): 0% | inhibition at 75 g/ha ([2]; 336 h, 75 g/ha, 4.2 to 5.3 leaf stage, 14 DAT, foliar treatment, read-out: Growth inhibition rate (%) of barnyardgrass, Measured value): 15%

CS(=O)(=O)c1ccc(C(=O)C2C(=O)CCCC2=O)c(Cl)c1 [Sulcotrione]
inhibition at 75 g/ha [1, 13]: 30% | inhibition at 150 g/ha [1, 13]: 30% | inhibition at 75 g/ha [2, 14]: 40% | inhibition at 150 g/ha [2, 14]: 45%

Cc1c(C(=O)c2cnn(C)c2O)ccc(S(C)(=O)=O)c1C1=NOCC1 [Topramezone]
inhibition at 7 g/ha [1, 13]: 30% | inhibition at 15 g/ha [1, 13]: 30% | inhibition at 7 g/ha [2, 14]: 40% | inhibition at 15 g/ha [2, 14]: 40%
